According to patent publication US20200087374A1, “INTERACTION BETWEEN C-PEPTIDES AND ELASTIN RECEPTOR, A MODEL FOR UNDERSTANDING VASCULAR DISEASE” (Resiliun B.V., priority 2017, published 2020):
“Also recorded” adds a separate entry of the source. Read-outs that look alike come from different tables or passages of the source.

Experiments:
[1] = system: Human monocytes; assay: Monocyte chemotaxis in 48-well microchemotaxis chamber; type: cell-based; conditions: for effect on monocyte chemotaxis induced by C-peptide: cells exposed 30 minutes before assay, C-peptide 0.1-10 nmol/L, antibodies 1:1000; for effect on monocyte chemotaxis induced by C-peptide / effect on monocyte chemotaxis in response to VGVAPG: sugars 1 mmol/L; for induction of monocyte chemotaxis: stimulus in lower wells
Description: Human monocytes are isolated from freshly drawn blood of healthy volunteers using serial Ficoll/Percoll gradient centrifugation, as described elsewhere. Cells are cultured for 16 hours in RPMI-1640 media supplemented with 0.5% human serum to become quiescent after isolation. Purity of the cells is >95% as determined by flow cytometry analysis. Monocyte chemotaxis is assayed in a 48-well microchemotaxis chamber (Neuroprobe, Gaithersburg, Md.) in serum-free media. Wells in the upper and lower chamber are separated by a polyvinylpyrrolidone-free polycarbonate membrane (pore size 5 μm; Costar). Freshly isolated monocytes at a density of 5×10^5/mL are incubated for 2.5 hours with recombinant C-peptide (Sigma), before migrated cells on the bottom face of the filter are stained and counted under the light microscope. Maximal chemotactic activity is measured with 0.1 mmol/L N-formyl-methionyl-leucyl-phenylalanine (f-MLF; Sigma Chemical Co), and checkerboard analysis is used to distinguish chemotaxis from chemokinesis. Inhibition of chemotaxis is tested by competition with VGVAPG, a repetitive peptide sequence found in human and bovine elastin (Sigma Chemical Co), and BA-4, an antielastin-blocking antibody. Controls for BA-4 include mouse immunoglobulin G (IgG; PharMingen, San Diego, Calif.). Exposure of cells to lactose is used to specifically dissociate the 67-kD EBP. Controls for lactose included glucose, fructose, and mannose, none of which affect the 67-kD EBP. In each case, monocytes cells are exposed to the relevant concentrations of SEQ ID NO:41 (VGVAPG) (10-9 to 10-5 mol/L), antibodies (1:1000), or sugars (1 mmol/L) for 30 minutes before the chemotaxis assays are started. […] Monocytes in the upper wells of the assay chamber are exposed to varying concentrations of SEQ ID NO:41 (VGVAPG) for 30 minutes before stimulation by human recombinant C-peptide (0.1 nmol/L-10 nmol/L) in the lower wells. […] C-peptide-derived chemotactic activity is eliminated by competition with […]=SEQ ID NO:41 (VGVAPG), a repetitive peptide found in human elastin that binds to cellular elastin receptors, and decreases in the presence of BA-4, a monoclonal antibody that can block elastin peptide mediated chemotactic activity. Monocyte chemotaxis in response to both SEQ ID NO:41 (VGVAPG) and C-peptide is abolished in the presence of lactose, a galactosugar that specifically dissociates the 67-kD EBP, but it is unaffected by glucose, fructose, or mannose. […] Chemotaxis is also assayed by a double micropore membrane system in modified Boyden chambers. The lower compartment containing 180 micro-l of C-peptide or fragments thereof at various concentrations is separated from the upper compartment containing 200 micro-1 of cell suspension ([…] cells, such as endothelial cells or smooth muscle cells or pericytes or keratinocytes of fibroblasts or leukocytes per ml medium) by a 10 micro-m polycarbonate membrane (Millipore, Bedford, Mass.). The membranes are presoaked in bovine type I collagen (25 micro-g phosphate-buffered saline per ml) (Chemicon International, Temecula, Calif.) for 24 h at room temperature to facilitate the attachment of cells. The chambers are incubated for 18 h at 37° C. in 5% CO2-balanced air. The chambers are then disassembled, and the membrane pairs are stained with hematoxylin. The cell number of a number, such as five, random and nonoverlapping fields under a microscope is counted. For all experiments, medium alone in the bottom chamber may serve as the baseline control. To confirm directed cell migration, the concentration gradient between the upper and lower compartments may be abolished by adding various doses of elastin to the cell suspension. Chemotaxis is assayed as described above. Chemotaxis may also be studied in an ex vivo aortic ring assay measuring endothelial cell migration and proliferation

[2] = system: CD4+ immune cells; assay: Boyden chamber migration of CD4+ immune cells; type: cell-based; conditions: for reduction/inhibition of C-peptide specific biological activity: preliminary
Description: Human monocytes are isolated from freshly drawn blood of healthy volunteers using serial Ficoll/Percoll gradient centrifugation, as described elsewhere. Cells are cultured for 16 hours in RPMI-1640 media supplemented with 0.5% human serum to become quiescent after isolation. Purity of the cells is >95% as determined by flow cytometry analysis. Monocyte chemotaxis is assayed in a 48-well microchemotaxis chamber (Neuroprobe, Gaithersburg, Md.) in serum-free media. Wells in the upper and lower chamber are separated by a polyvinylpyrrolidone-free polycarbonate membrane (pore size 5 μm; Costar). Freshly isolated monocytes at a density of 5×10^5/mL are incubated for 2.5 hours with recombinant C-peptide (Sigma), before migrated cells on the bottom face of the filter are stained and counted under the light microscope. Maximal chemotactic activity is measured with 0.1 mmol/L N-formyl-methionyl-leucyl-phenylalanine (f-MLF; Sigma Chemical Co), and checkerboard analysis is used to distinguish chemotaxis from chemokinesis. […] Controls for BA-4 include mouse immunoglobulin G (IgG; PharMingen, San Diego, Calif.). Exposure of cells to lactose is used to specifically dissociate the 67-kD EBP. Controls for lactose included glucose, fructose, and mannose, none of which affect the 67-kD EBP. In each case, monocytes cells are exposed to the relevant concentrations of SEQ ID NO:41 (VGVAPG) (10-9 to 10-5 mol/L), antibodies (1:1000), or sugars (1 mmol/L) for 30 minutes before the chemotaxis assays are started. […] Chemotaxis is also assayed by a double micropore membrane system in modified Boyden chambers. […] The membranes are presoaked in bovine type I collagen (25 micro-g phosphate-buffered saline per ml) (Chemicon International, Temecula, Calif.) for 24 h at room temperature to facilitate the attachment of cells. The chambers are incubated for 18 h at 37° C. in 5% CO2-balanced air. The chambers are then disassembled, and the membrane pairs are stained with hematoxylin. The cell number of a number, such as five, random and nonoverlapping fields under a microscope is counted. For all experiments, medium alone in the bottom chamber may serve as the baseline control. To confirm directed cell migration, the concentration gradient between the upper and lower compartments may be abolished by adding various doses of elastin to the cell suspension. Chemotaxis is assayed as described above.

[3] = target: T1, elastin receptor (Homo sapiens, UniProt P16278); conditions: cited from earlier work
T1 sequence (P16278 29-546 isoform P16278-2 limits assumed): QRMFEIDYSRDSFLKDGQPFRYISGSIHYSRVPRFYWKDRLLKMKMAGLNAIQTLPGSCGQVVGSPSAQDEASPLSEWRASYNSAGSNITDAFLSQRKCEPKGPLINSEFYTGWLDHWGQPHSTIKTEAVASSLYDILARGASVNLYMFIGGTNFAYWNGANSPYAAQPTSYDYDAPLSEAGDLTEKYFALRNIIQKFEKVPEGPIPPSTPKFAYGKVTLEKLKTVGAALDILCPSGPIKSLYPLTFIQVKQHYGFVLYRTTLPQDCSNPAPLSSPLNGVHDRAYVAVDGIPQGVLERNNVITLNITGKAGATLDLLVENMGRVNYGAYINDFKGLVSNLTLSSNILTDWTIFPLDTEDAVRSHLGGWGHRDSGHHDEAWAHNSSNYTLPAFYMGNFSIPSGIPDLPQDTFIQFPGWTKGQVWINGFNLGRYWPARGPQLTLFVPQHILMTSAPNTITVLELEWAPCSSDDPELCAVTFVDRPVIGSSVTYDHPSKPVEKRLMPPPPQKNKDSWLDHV

[4] = system: 30 mM glucose-induced vascular dysfunction in rats; conditions: cited from earlier work; for normalization/prevention of glucose-induced vascular dysfunction: 30 mM glucose, rats; for potency relative to native C-peptide: vascular dysfunction model
[5] = in vivo; cited from earlier work
[6] = system: arteriosclerotic lesion development; conditions: mice; cited from earlier work
[7] = system: cell membrane-bound C-peptide; conditions: cited from earlier work
[8] = system: human renal tubular cells; conditions: cited from earlier work
[9] = system: MAP kinase signalling pathways; conditions: cited from earlier work
[10] = system: Na(+),K(+)-ATPase; conditions: cited from earlier work
[11] = system: Na^+K^+ATPase; conditions: rat renal tubule cells; cited from earlier work

Compound: O=C(CO)[C@@H](O)[C@H](O)[C@H](O)CO [fructose]
- effect on monocyte chemotaxis induced by C-peptide [1]: unaffected
- effect on monocyte chemotaxis in response to VGVAPG [1]: unaffected

Compound: OC[C@H]1O[C@@H](O[C@H]2[C@H](O)[C@@H](O)C(O)O[C@@H]2CO)[C@H](O)[C@@H](O)[C@H]1O (stereo partly shown) [lactose]
- reduction/inhibition of C-peptide specific biological activity ([2]; in vitro): reduction of C-peptide specific biological activity
- antagonism of elastin peptide (ERC-ligand) binding to elastin receptor/EBP [3]: inhibited; also recorded: antagonized
- antagonism of elastin peptide (ERC-ligand) binding to elastin receptor/EBP ([3]; listed as Lactose): antagonise elastin peptide binding
- effect on monocyte chemotaxis induced by C-peptide [1]: abolished
- effect on monocyte chemotaxis in response to VGVAPG [1]: abolished

Compound: D-EAEDLQVGQVELGGGPGAGSLQPLALEGSLQ (all D-amino acids) [enantio C-peptide]
- normalization/prevention of glucose-induced vascular dysfunction [4]: biologically active
- potency relative to native C-peptide [4]: equipotent to native C-peptide

Compound: DLQVGQVELGGGPGAGSLQPL [SEQ ID NO:20]
- normalization/prevention of glucose-induced vascular dysfunction [4]: significant normalization

Compound: DLQVGQVELGGGPGAGSLQPLALEGSLQ [SEQ ID NO:10]
- normalization/prevention of glucose-induced vascular dysfunction [4]: significant normalization

Compound: EAEDLQVGQVELGGGPGAGSLQPL (EAEDLQVGQVELGGGPGAGSLQPLAL) [SEQ ID NO:17]
- normalization/prevention of glucose-induced vascular dysfunction [4]: significant normalization

Compound: EAEDLQVGQVELGGGPGAGSLQPLALEGSLQ [C-peptide]
- half-life [5]: 30 min
- plasma half-life [5]: ~30 min
- arteriosclerotic lesion development / atherogenicity [6]: promote experimental arteriosclerotic lesion development in mice; also recorded: atherogenic in mice
- increase of migration of CD4+ immune cells ([2]; C-peptide at 10 nM, 1% serum medium, in vitro): 100%
- checkerboard analysis: chemotaxis versus chemokinesis [1]: stimulates chemotaxis without a chemokinetic effect
- induction of monocyte chemotaxis [1]: stimulates a concentration-dependent increase in monocyte migration

Compound: EAENPQAGAVELGGGLGGLQALALEGPPQ [pig C-peptide, pig C-peptide, midportion LGGGLG]
- normalization/prevention of glucose-induced vascular dysfunction [4]: inactive

Compound: EGSLQ [SEQ ID NO:6]
- displacement of cell membrane-bound C-peptide [7]: displaces cell membrane-bound C-peptide
- intracellular Ca2+ [8]: increases intracellular Ca(2+)
- intracellular Ca2+ ([8]; listed as SEQ NO:6): may induce intracellular Ca2+ increases
- MAP kinase signalling pathways [9]: stimulates MAP kinase signalling pathways
- Na(+),K(+)-ATPase [10]: stimulates

Compound: ELGGGPGAG [SEQ ID NO:9]
- Na+K+ATPase activity [11]: stimulate

Compound: ELGGGPGAGSLQPL [SEQ ID NO:176]
- normalization/prevention of glucose-induced vascular dysfunction [4]: significant normalization

Compound: EVEDPQVPQLELGGGPEAGDLQTLALEVARQ [Rat C-peptide, rat C-peptide comprising hexapeptide LGGGPE]
- normalization/prevention of glucose-induced vascular dysfunction [4]: active

Compound: GGGPGAG [SEQ ID NO:8]
- normalization/prevention of glucose-induced vascular dysfunction [4]: normalize glucose-induced vascular dysfunction

Compound: GQVELGGGPGAGSLQPLALEGSLQ [SEQ ID NO:13]
- normalization/prevention of glucose-induced vascular dysfunction [4]: significant normalization

Compound: LGGGPGAGSLQPLALEGSLQ [SEQ ID NO:14]
- normalization/prevention of glucose-induced vascular dysfunction [4]: significant normalization

Compound: QLSGELALPQLSGAGPGGGLEVQGVQLDEAE (retro C-Peptide)
- normalization/prevention of glucose-induced vascular dysfunction [4]: biologically active
- potency relative to native C-peptide [4]: equipotent to native C-peptide

Compound: VGQVELGGGPGAGSLQPL [SEQ ID NO:175]
- normalization/prevention of glucose-induced vascular dysfunction [4]: significant normalization

Compound: VGVAPG [SEQ ID NO:41]
- arteriosclerotic lesion development / atherogenicity [6]: promote experimental arteriosclerotic lesion development in mice
- binding to elastin receptor [3]: binding has been demonstrated
- concentration of maximal chemotactic activity [1]: 0.1 mmol/L
- effect on monocyte chemotaxis induced by C-peptide [1]: eliminates monocyte chemotaxis induced by C-peptide
- effect of preincubation on chemotactic response to f-MLF ([1]; preincubation of monocytic cells): does not alter the chemotactic response to f-MLF
- chemotactic potency compared with f-MLF ([1]; same concentration of f-MLF): considerably more potent than the same concentration of f-MLF
- induction of monocyte chemotaxis [1]: induces chemotaxis in a concentration-dependent manner

Compound: VVGSPSAQDEASPL [V14 peptide]
- C-peptide-induced CD4-migration antagonized and diminished ([2]; V14-peptide at 1.3 microM, C-peptide at 10 nM): > 50%
- reduction/inhibition of C-peptide specific biological activity ([2]; in vitro): inhibition of bioactivity of C-peptide
- antagonism of elastin peptide (ERC-ligand) binding to elastin receptor/EBP [3]: antagonise elastin peptide binding; also recorded: inhibited; also recorded: antagonized
